ChEMBL document CHEMBL1201862, “PubChem BioAssay data set” (2004)
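Protocol summary: plate cells (96-well), add compound at 5 concentrations, incubate 48 h, interpolate endpoints linearly. GI50: concentration for 50% inhibition of growth.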 Calls of active or inactive are those of the source. No stated cut-off is given here; in the data, active = GI50 up to about 1.1 µM and inactive = higher.

Legend:
Test in all cases: NCI anticancer screen, dose series, 48 h
SK-MEL-28 = test system: SK-MEL-28
Malme-3M = test system: Malme-3M
NCI-H522 = test system: NCI-H522
SF-539 = test system: SF-539
NCI-H23 = test system: NCI-H23
RPMI-8226 = test system: RPMI-8226
HCC 2998 = test system: HCC 2998
MDA-MB-231 = test system: MDA-MB-231
LOX IMVI = test system: LOX IMVI
NCI/ADR-RES = test system: NCI/ADR-RES
HOP-92 = test system: HOP-92
SNB-19 = test system: SNB-19
HT-29 = test system: HT-29
COLO 205 = test system: COLO 205
OVCAR-8 = test system: OVCAR-8
M14 = test system: M14
SF-268 = test system: SF-268
SK-MEL-2 = test system: SK-MEL-2
UACC-257 = test system: UACC-257
UO-31 = test system: UO-31

| SMILES | GI50 (SK-MEL-28) | GI50 (Malme-3M) | GI50 (NCI-H522) | GI50 (SF-539) | GI50 (NCI-H23) | GI50 (RPMI-8226) | GI50 (HCC 2998) | GI50 (MDA-MB-231) | GI50 (LOX IMVI) | GI50 (NCI/ADR-RES) | GI50 (HOP-92) | GI50 (SNB-19) | GI50 (HT-29) | GI50 (COLO 205) | GI50 (OVCAR-8) | GI50 (M14) | GI50 (SF-268) | GI50 (SK-MEL-2) | GI50 (UACC-257) | GI50 (UO-31) |
| --- | --- | --- | --- | --- | --- | --- | --- | --- | --- | --- | --- | --- | --- | --- | --- | --- | --- | --- | --- | --- |
| NCCSCCc1ccccc1 | > 100 µM (inactive) | > 100 µM (inactive) | 58.6 µM (inactive) | > 100 µM (inactive) | > 100 µM (inactive) | 44 µM (inactive) | > 100 µM (inactive) | > 100 µM (inactive) | > 100 µM (inactive) | > 100 µM (inactive) | 72.1 µM (inactive) | > 100 µM (inactive) | > 100 µM (inactive) | > 100 µM (inactive) | > 100 µM (inactive) | > 100 µM (inactive) | > 100 µM (inactive) | > 100 µM (inactive) | > 100 µM (inactive) | > 100 µM (inactive) |
| CC(=O)N1C(Nc2ccccc2)CCN1c1ccccc1 (stereo not given) | > 10 µM (inactive) | 5.38 µM (inactive) | > 10 µM (inactive) | 5.19 µM (inactive) | > 10 µM (inactive) | > 10 µM (inactive) | > 10 µM (inactive) | > 10 µM (inactive) | > 10 µM (inactive) | 9.89 µM (inactive) | > 10 µM (inactive) | > 10 µM (inactive) | 5.77 µM (inactive) | > 10 µM (inactive) | > 10 µM (inactive) | > 10 µM (inactive) | 3.54 µM (inactive) | > 10 µM (inactive) | > 10 µM (inactive) | 4.45 µM (inactive) |
| CN(C)c1ccc2cc3ccc(N(C)C)cc3nc2c1 [ACRIDINE ORANGE] | 3.37 µM (inactive) | 3.86 µM (inactive) | 1.58 µM (inactive) | 1.88 µM (inactive) | 1.51 µM (inactive) | 0.527 µM (active) | 0.56 µM (active) | 1.19 µM (inactive) | 1.31 µM (inactive) | 1.43 µM (inactive) | 4.32 µM (inactive) | 0.984 µM (active) | 0.403 µM (active) | 0.975 µM (active) | 1.56 µM (inactive) | 3.05 µM (inactive) | 1.52 µM (inactive) | 6.18 µM (inactive) | 3.98 µM (inactive) | 0.871 µM (active) |
